Holding throughout (assay type): in vivo
The test system of assay [1] is Kochia (Kochia scoparia). The assay is described as follows: Test A preemergence. To be noted: Bassia scoparia, pre-emergence, 240 h, preemergence, read-out: Plant response rating, Kochia. A digest of the protocol:
(§1)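 Preemergence directed soil spray on seeded pots, or postemergence application to plants 2–10 cm, one- to two-leaf. Solvent mixture non-phytotoxic, with surfactant. Scored ~10 d later, visually, 0–100 vs untreated.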

In assay [2] the test system is barnyardgrass (Echinochloa crus-galli). The assay is described as follows: Test A preemergence. Conditions: Echinochloa crus-galli, pre-emergence, 240 h, preemergence, read-out: Plant response rating, Barnyardgrass. A digest of the protocol:
as §1

Assay [3] has as its system giant foxtail (Setaria faberii). The assay is described as follows: Test A preemergence. Conditions: Setaria faberi, pre-emergence, 240 h, preemergence, read-out: Plant response rating, Foxtail, Giant. A digest of the protocol:
as §1

In assay [4] the test system is pigweed (Amaranthus retroflexus). The assay can be described thus: Test A preemergence. Conditions: Amaranthus retroflexus, pre-emergence, 240 h, preemergence, read-out: Plant response rating, Pigweed.
Assay [5] relates to ragweed (common ragweed, Ambrosia elatior). The assay can be described thus: Test A preemergence. To be noted: Ambrosia artemisiifolia, pre-emergence, 240 h, preemergence, read-out: Plant response rating, Ragweed. A digest of the protocol:
as §1

In assay [6] the test system is ryegrass, Italian (Italian ryegrass, Lolium multiflorum). The assay can be described thus: Test A preemergence. Conditions: Lolium multiflorum, pre-emergence, 240 h, 125 g ai/ha, preemergence; visual rating after approx. 10 d; 0 to 100 scale where 0 is no effect and 100 is complete control; read-out: Plant response rating, Ryegrass, Italian. A digest of the protocol: as §1

Assay [7] deals with Galium (catchweed bedstraw, Galium aparine). The assay is described as follows: Test A postemergence. Conditions: Galium, post-emergence, 240 h, 125 g ai/ha, postemergence; visual injury after approximately 10 d; 0 to 100 scale (0 no effect, 100 complete control); read-out: Plant response rating, Galium. A digest of the protocol: as §1
Assay [8] has as its system Kochia (Kochia scoparia). The assay can be described thus: Test A postemergence. To be noted: Bassia scoparia, post-emergence, 240 h, 125 g ai/ha, postemergence; visual injury after approximately 10 d; 0 to 100 scale (0 no effect, 100 complete control); read-out: Plant response rating, Kochia. Put shortly: as §1
The subject of assay [9] is barnyardgrass (Echinochloa crus-galli). The assay is described as follows: Test A postemergence. To be noted: Echinochloa crus-galli, post-emergence, 240 h, 125 g ai/ha, postemergence; visual injury after approximately 10 d; 0 to 100 scale (0 no effect, 100 complete control); read-out: Plant response rating, Barnyardgrass. Put shortly: as §1
In assay [10] the test system is blackgrass (Alopecurus myosuroides). The assay is described as follows: Test A postemergence. Conditions: Alopecurus myosuroides, post-emergence, 240 h, 125 g ai/ha, postemergence; visual injury after approximately 10 d; 0 to 100 scale (0 no effect, 100 complete control); read-out: Plant response rating, Blackgrass. A digest of the protocol: as §1
Another assay concerns corn (Zea mays). The assay can be described thus: Test A postemergence. To be noted: Zea mays, post-emergence, 240 h, 125 g ai/ha, postemergence; visual injury after approximately 10 d; 0 to 100 scale (0 no effect, 100 complete control). Put shortly: as §1
Assay [11] deals with giant foxtail (Setaria faberii). The assay is described as follows: Test A postemergence. Conditions: Setaria faberi, post-emergence, 240 h, 125 g ai/ha, postemergence; visual injury after approximately 10 d; 0 to 100 scale (0 no effect, 100 complete control); read-out: Plant response rating, Foxtail, Giant. Put shortly: as §1
Assay [12] relates to pigweed (Amaranthus retroflexus). The assay is described as follows: Test A postemergence. To be noted: Amaranthus retroflexus, post-emergence, 240 h, 125 g ai/ha, postemergence; visual injury after approximately 10 d; 0 to 100 scale (0 no effect, 100 complete control); read-out: Plant response rating, Pigweed. Put shortly: as §1
Assay [13] deals with ragweed (common ragweed, Ambrosia elatior). The assay can be described thus: Test A postemergence. To be noted: Ambrosia artemisiifolia, post-emergence, 240 h, 125 g ai/ha, postemergence; visual injury after approximately 10 d; 0 to 100 scale (0 no effect, 100 complete control); read-out: Plant response rating, Ragweed. A digest of the protocol: as §1
Assay [14] deals with ryegrass, Italian (Italian ryegrass, Lolium multiflorum). The assay can be described thus: Test A postemergence. Conditions: Lolium multiflorum, post-emergence, 240 h, 125 g ai/ha, postemergence; visual injury after approximately 10 d; 0 to 100 scale (0 no effect, 100 complete control); read-out: Plant response rating, Ryegrass, Italian. Put shortly: as §1
In assay [15] the test system is wheat (Triticum aestivum). The assay can be described thus: Test A postemergence. Conditions: Triticum aestivum, post-emergence, 240 h, 125 g ai/ha, postemergence; visual injury after approximately 10 d; 0 to 100 scale (0 no effect, 100 complete control); read-out: Plant response rating, Wheat. Put shortly: as §1
Setting [16] is: 125 g ai/ha, visual rating after approx. 10 d, 0 to 100 scale where 0 is no effect and 100 is complete control.
[17] abbreviates: 500 g ai/ha, 0 to 100 scale, 0 = no effect, 100 = complete control.

Take `O=C1NC[C@H](c2ccc3c(c2)OCO3)[C@H]1C(=O)Nc1ccccc1F` [Compound 767]: the pest or weed control at 125 g/ha came out at 0% in the assay on Kochia (Kochia scoparia) [1] (setting [16]); 90% in [2] (setting [16]); 0% in assay [3] (setting [16]); 0% in assay [4] (setting [16]); 0% in assay [5] (setting [16]); 0% in assay [6]. Also, the pest or weed control at 125 g/ha in assay [7] amounted to 0%; with Kochia (Kochia scoparia) [8] it was 0%; in assay [9] it was 70%; in [10], 0%; in assay [11], 0%; in assay [12] it was 0%. For the same compound, the pest or weed control at 125 g/ha in assay [13] and in [14] was 0% in each case. Also, the pest or weed control at 500 g/ha turned out to be 0% in the assay on Kochia (Kochia scoparia) [1] (setting [17]); 90% in assay [2] (setting [17]); 90% in [3] (setting [17]); 0% in assay [4] (setting [17]); 0% in [5] (setting [17]). In the assay with corn (Zea mays), this compound registered a Corn plant response rating (crop injury, 0 = no effect, 100 = complete kill) at 125 g/ha of 0%. Besides, in assay [15], the plant injury at 125 g/ha was 0%.

Source of the values: US12077503B2, “Substituted cyclic amides and their use as herbicides” (FMC CORPORATION, priority 2015, dated 2024).
